{"source": "patent EP3693362B1", "about": "“PARASITIC PLANT GERMINATION REGULATOR” (National University Corporation Tokai National Higher …, priority 2017, dated 2019)", "key": {"HTL7": {"target": "T1, HTL7 (Striga hermonthica, UniProt A0A0M3PNA2)", "T1 sequence (A0A0M3PNA2 1-271)": "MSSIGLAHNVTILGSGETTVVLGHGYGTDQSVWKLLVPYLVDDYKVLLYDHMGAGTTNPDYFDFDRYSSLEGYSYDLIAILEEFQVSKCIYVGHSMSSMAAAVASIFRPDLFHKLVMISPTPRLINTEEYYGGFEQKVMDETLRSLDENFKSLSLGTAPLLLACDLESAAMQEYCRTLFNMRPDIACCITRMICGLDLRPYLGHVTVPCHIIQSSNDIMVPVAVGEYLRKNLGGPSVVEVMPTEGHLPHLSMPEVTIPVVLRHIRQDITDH", "assay": "Affinity for strigolactone receptor, YLG probe competition (fluorescence)", "assay_type": "binding", "details": "competition with YLG, test range 0.01 to 10 µM, pH 7.0, read-out: IC50 values of test compounds", "description": "(§1) PTL 1 reports that the affinity of a test compound for the strigolactone receptor can be evaluated by reacting strigolactone with a probe for evaluation of affinity for a strigolactone receptor (e.g., YLG) in the presence of the test compound, and measuring the fluorescence emitted from the decomposition product of YLG. Therefore, the compounds synthesized in Example 1 were used as the test compounds, and the affinity for the strigolactone receptor was evaluated by a similar method to the above. The details are as follows.\n(§2) An Arabidopsis thaliana strigolactone receptor (AtD14) was produced in accordance with a usual method. More specifically, cDNA of the receptor was obtained by RT-PCR, and expression and purification were carried out in E. coli. Additionally, Striga strigolactone receptors were produced by the method disclosed in PTL 1 (ShHTL1: amino acid SEQ ID NO: 1, ShHTL2: amino acid SEQ ID NO: 2, ShHTL3: amino acid SEQ ID NO: 3, ShHTL4: amino acid SEQ ID NO: 4, ShHTL5: amino acid SEQ ID NO: 5, ShHTLS: amino acid SEQ ID NO: 6, ShHTL7: amino acid SEQ ID NO: 7, ShHTLS: amino acid SEQ ID NO: 8, ShHTL9: amino acid SEQ ID NO: 9, ShHTL10: amino acid SEQ ID NO: 10, and ShHTL11: amino acid SEQ ID NO: 11.)\n(§3) One hundred microliters of a reaction solution containing each of the obtained strigolactone receptors ([…]), YLG (final concentration: […]), and each of the test compounds (final concentration: 0.01 to 10 µM) or the control compound (5-deoxystrigol, final concentration: 0.01 to 10 µM) as a competitive compound (100 mM HEPES, 150 mM NaCl, pH: 7.0, 0.1% DMSO) was prepared and reacted in a 96 black-well plate (Greiner). Sixty after the initiation of the reaction, fluorescence was detected at an excitation wavelength of 480 nm and a detection wavelength of 520 nm using a fluorescence detector (SpectraMax i3, manufactured by Molecular Devices), and the fluorescence intensity was measured. Based on the measurement results of fluorescence intensity, a Lineweaver-Burk plot was created to calculate the Km values, and the IC50 values of each of the test compounds and the control compound, which are competitive compounds.\n(§4) In Table 7, HTL1 to HTL11 refer to strigolactone receptors (SEQ ID NOs: 1 to 11), and AtD14 refer to the Arabidopsis thaliana strigolactone receptor."}, "HTL4": {"target": "T2, HTL4 (Striga hermonthica, UniProt A0A0M4AMQ0)", "T2 sequence (A0A0M4AMQ0 1-271)": "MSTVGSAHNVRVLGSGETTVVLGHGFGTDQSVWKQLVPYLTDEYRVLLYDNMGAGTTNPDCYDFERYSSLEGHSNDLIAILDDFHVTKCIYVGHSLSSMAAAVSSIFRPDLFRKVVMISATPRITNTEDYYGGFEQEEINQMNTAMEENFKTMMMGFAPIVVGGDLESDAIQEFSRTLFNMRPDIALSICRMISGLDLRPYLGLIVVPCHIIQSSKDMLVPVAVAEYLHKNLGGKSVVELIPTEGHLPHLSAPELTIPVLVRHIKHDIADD", "assay": "Affinity for strigolactone receptor, YLG probe competition (fluorescence)", "assay_type": "binding", "details": "competition with YLG, test range 0.01 to 10 µM, pH 7.0, read-out: IC50 values of test compounds", "description": "as §1, §2, §3, §4"}, "Phelipanche aegyptiaca": {"tested_on": "Phelipanche aegyptiaca", "assay": "Parasitic plant germination induction test (Phelipanche aegyptiaca seeds)", "assay_type": "in vivo", "details": "in the dark for 2 days", "description": "(§5) A parasitic plant germination induction test was conducted using the compounds synthesized in Example 1 as test compounds. The seeds of a parasitic plant (Striga hermonthica, Orobanche minor, or Phelipanche aegyptiaca) were suspended in sterilized ultrapure water, and this was dispensed in an amount of 100 µL each (containing about 20 seeds) into a 96-well plate. The test compounds or control compounds (Comparison Compound 1 or synthetic Strigolactone (GR^24: Comparison Compound 2)) dissolved in DMSO were individually added thereto to a final concentration of these compounds of 10 nM to 1 fM (1 × 10^-8 to 1 × 10^-15 M), and allowed to stand in the dark for 2 days. The presence or absence of germination was observed using a microscope, and the germination rate (i.e., number of germinated seeds/total number of seeds) was measured. The higher the germination rate in the parasitic plant germination induction test, or the higher the germination rate at lower concentration, the higher the Striga germination inducing activity.\n(§6) In Tables 1 to 6, the concentrations (10 nM, 1 nM, and 0.1 nM) represent compound concentrations. In Tables 1-6, the evaluation criteria for the compounds are as follows: • ++: germination rate of 20% or more • +: germination rate of 5% or more and less than 20% • -: germination rate of less than 5% Table 1"}, "Orobanche minor": {"tested_on": "Orobanche minor", "assay": "Parasitic plant germination induction test (Orobanche minor seeds)", "assay_type": "in vivo", "details": "in the dark for 2 days", "description": "as §5, §6"}}}
{"smiles": "CC1=CC(OC=C2C(=O)OC3C4=C(CCCC4(C)C)CC23)OC1=O", "note": "(stereo not shown) [5-Ddeoxystriqol, 5-deoxystrigol, reference compound]", "values": [{"measurement": "IC50", "setting": "HTL7", "value": 0.12, "unit": "µM"}, {"measurement": "IC50", "setting": "HTL4", "value": 0.3, "unit": "µM"}]}
{"smiles": "CC1=CC(OC(=O)NCc2ccccc2)OC1=O", "note": "(stereo not shown) [Comparison Compound 1, reference compound]", "values": [{"measurement": "IC50", "setting": "HTL7", "value": "> 10", "unit": "µM"}, {"measurement": "IC50", "setting": "HTL4", "value": "> 10", "unit": "µM"}]}
{"smiles": "CCCCOc1ccc(S(=O)(=O)N2CCN(C(=O)OC3C=C(C)C(=O)O3)CC2)cc1", "note": "(stereo not shown) [Compound 1]", "values": [{"measurement": "IC50", "setting": "HTL7", "value": 0.31, "unit": "µM"}, {"measurement": "IC50", "setting": "HTL4", "value": "> 10", "unit": "µM"}, {"measurement": "Germination rate 1 nM", "setting": "Phelipanche aegyptiaca; compound concentration 1 nM", "value": "- (germination rate of less than 5%)"}, {"measurement": "Germination rate 10 nM", "setting": "Phelipanche aegyptiaca; compound concentration 10 nM", "value": "+ (germination rate of 5% or more and less than 20%)"}, {"measurement": "Germination rate 0.1 nM", "setting": "Orobanche minor; compound concentration 0.1 nM", "value": "- (germination rate of less than 5%)"}, {"measurement": "Germination rate 1 nM", "setting": "Orobanche minor; compound concentration 1 nM", "value": "++ (germination rate of 20% or more)"}, {"measurement": "Germination rate 10 nM", "setting": "Orobanche minor; compound concentration 10 nM", "value": "++ (germination rate of 20% or more)"}]}
{"smiles": "CCCCOc1ccc(S(=O)(=O)N2CCN(C(=O)OC3C=CC(=O)O3)CC2)cc1", "note": "(stereo not shown) [Compound 13]", "values": [{"measurement": "IC50", "setting": "HTL7", "value": 0.75, "unit": "µM"}, {"measurement": "IC50", "setting": "HTL4", "value": "> 10", "unit": "µM"}]}
